Test system: PDE7A
Experiment: PDE inhibition assay, PDE7A (previous investigations)
Assay type: biochemical
Details: ratio of IC50 values, vs GRMS-55

Structure (SMILES): Cn1c(=O)c2c(nc(NCCc3ccccc3)n2CCCC(=O)NN=Cc2ccc(O)c(O)c2O)n(C)c1=O [Compound 34, 4-(1,3-dimethyl-2,6-dioxo-8-(phenethylamino)-2,3,6,7-tetrahydro-1H-purin-7-yl)-N′-(2,3,4-trihydroxybenzylidene)butanehydrazide]
- times more potent as a PDE7A inhibitor compared to GRMS-55: about two

Reference: article PMC9147171, “Pharmacokinetic/Pharmacodynamic Evaluation of a New Purine-2,6-Dione Derivative in Rodents with Experimental Autoimmune Diseases” (Pharmaceutics, 2022)
